From patent US9399631B2, “Polyphenol proteasome inhibitors, synthesis, and methods of use” (UNIVERSITY OF SOUTH FLORIDA, priority 2003, dated 2016)

What was measured:
[1] = system: LNCaP cells; test: Western blot of proteasome target proteins in LNCaP cells; format: cell-based, human; details: for Bax protein levels / apoptosis-specific PARP cleavage / increase of IκB-α levels / increase of p27 levels: 10 μM; for Bax protein levels / apoptosis-specific PARP cleavage: 24 hours; for increase of IκB-α levels / increase of p27 levels: 12 hour treatment
In short: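 LNCaP cells exposed to 25 μM (−)- or (+)-EGCG-amide for up to 9 h, or synthetic analogs for indicated hours. Whole-cell extracts (60 μg protein) probed by ECL Western blot for p27, IκB-α, Bax and polyubiquitinated proteins; p27 or IκB-α quantified as ratio to actin band intensity.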

[2] = system: VA-13 cells; test: Western blot of p27 in SV40-transformed VA-13 fibroblasts; format: cell-based, human; details: 25 μM
Procedure: Cell Culture, Cell Extract Preparation, and Western Blot Assay. Human leukemia Jurkat T and prostate cancer LNCaP cells were cultured in RPMI 1640 medium supplemented with 10% fetal calf serum, 100 units/ml of penicillin, and 100 μg/ml streptomycin. Human immortalized, non-transformed NK cells (YT cell line) (38) were cultured in RPMI 1640 supplemented with 1 mM MEM sodium pyruvate solution, 0.1 mM MEM non-essential amino acids solution, 10% fetal calf serum. 100 units/ml penicillin, and 100 μg/ml streptomycin. Normal (WI-38) and simian virus 40 (SV40)-transformed (VA-13) human fibroblasts were grown in Dulbecco's modified Eagle's medium supplemented with 10% fetal calf serum, 100 units/ml of penicillin and 100 μg/ml of streptomycin. All cells were maintained at 37° C. in a humidified incubator with an atmosphere of 5% CO2. A whole cell extract was prepared in accordance with An et al. (An, B. et al. Cell Death Differ, 1998, 5:1062-75). Briefly, cells were harvested, washed with PBS twice, and homogenized in a lysis buffer [50 mM Tris-HCl (pH 8.0), 5 mM EDTA, 150 mM NaCl, 0.5% NP-40, 0.5 mM phenylmethylsulfonyl fluoride, and 0.5 mM dithiothreitol] for 30 min at 4° C. Afterwards, lysates were centrifuged at 12,000×g for 15 min at 4° C., and the supernatants were collected as whole cell extracts. Equal amounts of protein extract (60 μg) were resolved by SDS-polyacrylamide gel electrophoresis and transferred to a nitrocellulose membrane using a Semi-Dry Transfer system (BIO-RAD, Hercules, Calif.). Jurkat T, LNCaP, or DU-145 cells were treated with various concentrations of synthetic or natural tea polyphenols for indicted hours. The enhanced chemiluminescence (ECL) Western blot analysis was then performed using specific antibodies to the proteins of interest (p^27kip, IκB-α, PARP, Bax or actin). The ratio of p27 or IκB-α to the corresponding actin was determined by scanning intensities of the protein bands.
Normal WI-38 and SV40-transformed VA-13 cell lines were treated with 25 μM of (−)-EGCG, (−)-EGCG-amide, (+)-EGCG, (+)-EGCG-amide, or GTP-1 for either 12 hours or 36 hours.

Row | Structure (SMILES) | Bax protein levels [1] | apoptosis-specific PARP cleavage [1] | levels of Bax protein ([1]; 50 μM, 3 to 12 hours) | levels of p27 protein ([2]; 12 hours) | levels of p27 protein ([2]; 36 hours) | levels of p27, IκB-α and Bax ([1]; 25 μM, up to 9 hours) | increase of IκB-α levels [1] [fold] | increase of p27 levels [1] [fold]
1 | O=C(O[C@@H]1Cc2c(O)cc(O)cc2O[C@@H]1c1cc(O)c(O)c(O)c1)c1cc(O)c(O)c(O)c1 [(−)-EGCG, (−)-epigallocatechin-3-gallate, reference compound] | significantly increased Bax protein levels | induced the apoptosis-specific PARP cleavage | increased only at 12 hours | significantly increased levels of p27 protein | accumulated p27 levels | – | – | –
2 | O=C(N[C@@H]1Cc2c(O)cc(O)cc2O[C@@H]1c1cc(O)c(O)c(O)c1)c1cc(O)c(O)c(O)c1 [(−)-EGCG-amide, (−)-[2R,3R]-N-[5,7-Dihydroxy-2-(3,4,5-trihydroxyphenyl)-chroman-3-yl]-3,4,5-trihydroxybenzamide] | – | – | – | significantly increased levels of p27 protein | – | able to increase levels of p27, IκB-α and Bax by 3 hours | – | –
3 | O=C(OC1Cc2c(O)cc(O)cc2OC1c1cc(O)c(O)c(O)c1)c1cc(O)c(O)c(O)c1 (single isomer, unassigned; (+)) [(+)-EGCG] | significantly increased Bax protein levels | induced the apoptosis-specific PARP cleavage | – | significantly increased levels of p27 protein | – | – | 2.6 | 3.1
4 | O=C(OC1Cc2c(O)cc(O)cc2OC1c1cc(O)c(O)c(O)c1)c1cc(O)c(O)c(O)c1 (single isomer, unassigned; (+)) [(+)-GCG] | – | – | – | – | – | – | 3.7 | 5.8
